Measurements as given in the METLIN SMRT retention time set (Domingo-Almenara et al. 2019).

Assay: gradient 5% acetonitrile 3 min, to 50% in 2 min, to 85% in 15 min, held 3 min, 100 µL/min
Details: column: Zorbax Extend-C18 2.1 x 50 mm; eluents: water / acetonitrile, 0.1% formic acid
Outline: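 The system's dead and dwell volumes were 40 μL and 900 μL, with a Zorbax Extend-C18 column (2.1 × 50 mm, 1.8 μm) run at 100 μL/min in water and acetonitrile containing 0.1% formic acid each. Pure standards were analyzed in mixtures of ~100 molecules by HPLC–quadrupole time-of-flight mass spectrometry in positive and negative ionization mode. Retention time was assigned from computationally picked, manually inspected adduct peaks.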

RP-LC retention time | SMILES
1210 s | Cn1c(C(=O)NC2CCCCC2)cc2c(-c3cccs3)nn(-c3ccccc3)c21
1380 s | Cc1nn(-c2nc(CC(=O)Nc3nc(-c4ccccc4)cs3)cs2)c(C)c1Cc1ccccc1
777 s | CNC(=O)C1CCN(C2=NS(=O)(=O)C(c3ccc(C(C)C)cc3)=C2C)CC1
691 s | Cc1cc(NS(=O)(=O)c2cc(-c3[nH]ncc3C(=O)N3CCOCC3)oc2C)ccc1F
857 s | CC(Oc1cccc(F)c1)C(=O)NCCOc1ccccc1 (stereo not given)
708 s | COc1cc(OC)c(NC(=O)Nc2c(-c3ccc(F)cc3)nc3ccccn23)cc1Cl
901 s | Cc1cccc(NC(=O)N2CCc3nc(-c4ccccc4)ncc3C2)c1C
1200 s | O=c1c2cc3c(cc2nc(SCc2nc(-c4ccc(F)cc4)no2)n1Cc1ccccc1)OCO3
583 s | Cc1ccc(-c2cn3cc(C(=O)N4CCCN(C)CC4)ccc3n2)cc1C
736 s | CCC(=O)NCCc1csc(C2CCCN(C(=O)C3(c4ccccc4)CC3)C2)n1 (stereo not given)
573 s | CCN1CCN(C(=O)C2Cn3cccc3C(=O)N2CC(C)C)CC1 (stereo not given)
625 s | COc1ccccc1-c1nc(-c2ccc3c(c2)ncn3CCN2CCOCC2)no1
868 s | CCc1nc2cc(N3CCC(C(=O)NC(C)c4ccc(OC)cc4)CC3)cnc2nc1CC (stereo not given)
718 s | Cc1ccc(NC(=O)CN2CCC(c3nc(-c4cccs4)no3)CC2)c(C)c1
572 s | CCS(=O)(=O)NCCc1csc(C)n1
668 s | Cc1ccc(NC(=O)Cn2c(C)nc3cc4c(cc32)OCCO4)c(C)c1
864 s | CCOc1ccc(NC(=O)Cn2c(=O)n(-c3cccc(C)c3)c(=O)c3c2cc(C)n3C)cc1
938 s | CC(C)CCNC(=O)CN1C(=O)CCCc2cc(S(=O)(=O)N3CCC(C)CC3)ccc21
577 s | OCC1CN(c2ncccn2)CC12CCN(Cc1cc(Cl)ccc1F)CC2 (stereo not given)
738 s | O=C(N[C@H]1C[C@@H]2C[C@H]1CN2C(=O)NCc1cccc(F)c1)c1cccs1
591 s | CC(C)c1nnc(C2CN(Cc3ccc(F)c(Cl)c3)CC23CCN(C)CC3)o1 (stereo not given)
966 s | CC(=O)N1c2ccc(S(=O)(=O)N3CCCCC3)cc2CC1C(=O)Nc1ccc(C)c(C)c1 (stereo not given)

RP-LC retention time | SMILES
871 s | Cc1ccc(C(=O)NCc2nc(-c3ccc4c(c3)oc(=O)n4C(C)C)no2)cc1
1140 s | CCC(c1cccs1)N1C(=O)[C@H]2CN(S(=O)(=O)c3ccc(C(C)C)cc3)C[C@H]2C1=O (stereo not given in full)
587 s | Cc1ccsc1C(=O)NC1CCc2nnc(C3CC3)n2CC1 (stereo not given)
655 s | CC1CN2C=NC(N3CCN(C(=O)Nc4ccc5c(c4)CCC5)CC3)=CC2=N1 (stereo not given)
1080 s | CCOC(=O)C1CCN(c2ncnc3c2cnn3-c2cccc(C)c2)CC1
598 s | Cc1cc(C)c(CNC(=O)C2CCN(c3cncnc3N3CCN(C)CC3)CC2)c(C)c1
953 s | COC(=O)c1ccc2c(=O)n(-c3cccc(C)c3)c(N3CCCC3)nc2c1
615 s | O=C(CCc1nnn2c1CN(C(=O)NC1CCCC1)CC2)N1CCOCC1
716 s | O=C(Cn1nc2n(c1=O)CCCC2)Nc1ccc(C(F)(F)F)cc1
946 s | N#CCCSc1ccccc1NC(=O)c1ccc(S(=O)(=O)N2CCCCCC2)cc1
1120 s | Cn1nccc1-c1cccc(-c2noc(COc3ccc(Cl)cc3)n2)c1
948 s | COc1cc(OC)cc(N2C=C(C#N)S(=O)(=O)c3ccc(C)cc32)c1
1050 s | CCOc1ccc(S(=O)(=O)N2CCCC(C(=O)Nc3cccc(C)c3)C2)cc1 (stereo not given)
1130 s | CCOc1ccc(NC(=O)Cn2nc(N3CCC(C)CC3)c3ccccc3c2=O)cc1
833 s | CCn1cccc1-c1nc(-c2ccncc2)no1
829 s | Cc1ccc(C)c(N2CCN(C(=O)c3cnc4ncnn4c3C)CC2)c1
1160 s | COc1cccc(S(=O)(=O)N2CCC3(CC2)C(OC)CN3c2cccc(F)c2)c1 (stereo not given)
804 s | O=C(c1ccc(-c2ccc3c(c2)CCN3C(=O)Nc2ccc3c(c2)OCCO3)cc1)N1CCOCC1
1350 s | CCn1c(=O)c(N2CCCC(C(=O)N3CCN(c4cccc(C)c4C)CC3)C2)nc2ccccc21 (stereo not given)
604 s | O=C(NCc1ccco1)C1CCCN(C(=O)NC2CC2)C1 (stereo not given)
703 s | CN1C(=O)C(CC(=O)NC2CCCCC2)Sc2ncccc21 (stereo not given)
674 s | CCCN(Cc1ccc(Cl)cc1)Cc1cc(=O)n2cc(C)ccc2n1

RP-LC retention time | SMILES
900 s | O=C(c1ccc(F)cc1F)N1CCC2(CC1)N=C(c1ccc(Cl)cc1)NO2
1040 s | O=c1ccc(-c2ccc3c(c2)OCO3)nn1Cc1nc(-c2cccc(Cl)c2)no1
860 s | CCC(CC)C(=O)NCCc1c[nH]c2ccc(C)cc12
581 s | Cc1c2cnn(-c3ccccc3)c(=O)c2c(C)n1C(C)C(=O)NCCCN1CCN(C)CC1 (stereo not given)
646 s | Nc1nnc(SCc2nnc(-c3cccc(F)c3)o2)s1
796 s | CCC(CC)NC(=O)C1CC(=O)N(CCc2c[nH]c3ccc(Cl)cc23)C1 (stereo not given)
793 s | CCNC(=O)c1cc(=O)[nH]c2c(C)cccc12
634 s | Cc1noc(-c2cccnc2N2CCCN(Cc3ccc(F)cc3)CC2)n1
1060 s | CCN1C(=O)c2cc(S(=O)(=O)Nc3ccc(F)c(C)c3)ccc2Oc2cccnc21
1000 s | O=C(Nc1ccc2c(c1)OCCO2)N1CCN(c2nc3cccnc3n(Cc3ccccc3)c2=O)CC1
647 s | Cc1ccc(NC(=O)N(C)Cc2ccoc2)cc1
747 s | O=C([C@H]1C[C@@H](F)CN1S(=O)(=O)Cc1ccc(Cl)cc1)N1CCOCC1
919 s | Cc1ccc(-n2c(N3CCCC(C(=O)NCc4ccc(F)cc4)C3)nc3ccsc3c2=O)cc1 (stereo not given)
688 s | Cc1ccc(S(=O)(=O)NC2CCN(C(=O)c3ccnn3C)CC2)cc1
820 s | COc1ccccc1C(=O)N1C[C@H](c2nc(-c3ccccc3)no2)[C@@H](C)C1
618 s | O=C(CN1CCC(c2nc(-c3ccc(F)cc3)no2)CC1)N1CCN(c2ccccc2)CC1
595 s | Cc1noc(C)c1CC(=O)N1CCCn2ccnc2C1C1CCCC1 (stereo not given)
803 s | Cc1ccc(NS(=O)(=O)c2cc(-c3[nH]ncc3C(=O)N3CCCC3)oc2C)cc1Cl
637 s | CN1CCC2(CC1)CN(C(=O)Nc1ccccc1)Cc1ccccc1O2
822 s | O=C(CCn1nnc2cc(-c3noc(-c4ccc(Br)o4)n3)ccc21)N1CCOCC1
555 s | CC(C)Cn1c(=O)c(N2CCN(C(=O)c3ccco3)CC2)nc2ccncc21
